Measurements: patent US10702589B2, “Compositions and methods of treating neurological disorder and stress-induced conditions” (Ann and Robert H. Lurie Children's Hospital of Chicago, priority 2016, dated 2020)

Tested on: AkrRE1/2 luciferase reporters
Test: AkrRE1/2 luciferase reporter assay with mevalonate pathway metabolites in primary CGE and MGE cells
Assay type: cell-based, mouse
Details: FOH 0.1-100 μM, GGOH 0.01-100 μM, FIG. 2G-J
Text: For all luciferase experiments, enhancers were cloned into the pGL3 promoter vector (Promega) using the KpnI and NheI restriction sites on the 5′ and 3′ sites, respectively. The Calb1 enhancers (site 1, site 2, and site 3), AkrR enhancers (site 1 and site 2), NPY enhancers (site 1 and site 2), and SST enhancer (site 1) were identified by MACS2 peak analysis of ChIP-seq (DNA sequences obtained from the UCSC genome browser). Primers were designed to PCR amplify enhancer sequences from C57BL/6J mouse genomic DNA into expression plasmids.
MGE and CGE tissues were dissected from E13.5 Swiss Webster embryos, dissociated in L15 media by pipetting several times, and spun through a cell strainer for single cell preparations. Briefly, cells were seeded at a density of 2.5×10^5 cells per cm^2 (Flandin et al. 2011). One day prior to seeding cells, 24-well plates were coated with poly-L-lysine (30 μg/mL; Sigma) and laminin (5 μg/mL; Sigma), while 96-well plates were coated with poly-L-lysine (3 μg/mL; Sigma) and laminin (5 μg/mL; Sigma). Initially, cells were seeded in neurobasal medium (DMEM/F-12 supplemented with L-glutamate, B-27 (Gibco), N2 supplement (Gibco), bovine pituitary extract (35 μg/mL; Life Technologies), mito+ serum extender (BD Biosciences), penicillin (100 U/mL; Gibco), streptomycin (100 μg/mL; Gibco), and glutamax (0.8 mM; Gibco)). […]

For `CC(C)=CCCC(C)=CCCC(C)=CCO` [FOH, farnesol], the “effect on AkrRE1/2 luciferase reporters, normalized to buffer alone” value was “dose-dependent, enhancer- and region-specific effects”.

For `CC(C)=CCC/C(C)=C/CC/C(C)=C/CC/C(C)=C/CO` [GGOH, geranylgeraniol], the “effect on AkrRE1/2 luciferase reporters, normalized to buffer alone” value was “dose-dependent, enhancer- and region-specific effects”.
